We go through 2 compounds from patent US12138250B2, “Formulations of 6-(2-hydroxy-2-methylpropoxy)-4-(6-(6-((6-methoxypyridin-3-yl)methyl)-3,6-diazabicyclo[3.1.1]heptan-3-yl)pyridin-3-yl)pyrazolo[1,5-a]pyridine-3-carbonitrile” (Loxo Oncology, Inc., priority 2017, dated 2024).

SMILES strings stand for the structures. Like-named read-outs stand apart in the source and are kept apart here.

A short description of series [1]: Gravimetric Vapor Sorption (GVS). Type of series: physicochemical. As to the method:
Approximately 10-20 mg of sample was placed into a mesh vapor sorption balance pan and loaded into an IGASorp Moisture Sorption Analyzer balance by Hiden Analytical. The sample was subjected to a ramping profile from 40-90% RH at 10% increments, maintaining the sample at each step until a stable weight had been achieved (98% step completion). After completion of the sorption cycle, the sample was dried using the same procedure to 0% RH, and finally taken back to the starting point of 40% RH. The weight change during the sorption/desorption cycles were plotted, allowing for the hygroscopic nature of the sample to be determined.

The conditions of series [2]: salt screen, succinic acid.

Regarding `COc1ccc(CN2C3CC2CN(c2ccc(-c4cc(OCC(C)(C)O)cn5ncc(C#N)c45)cn2)C3)cn1` [Form 1], in series [1], the “form or crystallinity by XRPD post-GVS analysis” value is “No change in form” and the “hygroscopicity by GVS” value is on record as “moderately hygroscopic”. Further, in series [1] (at 90% RH), the “weight increase by GVS” value is 2.6%.
As to `O=C(O)CCC(=O)O` [Succinic acid], the XRPD post-cycling result in series [2] (IPA/water (10%)) and in series [2] (MeCN/water (20%)) was “Form 8” each time. Moreover, the XRPD post-stability entry in series [2] (MeCN/water (20%), overnight 40° C. and 75% RH) was “Form 8”.
